Assay results published in ChEMBL document CHEMBL1151186, “Ether-linked biflavonoids from Quintinia acutifolia” (J Nat Prod, 2004).
In brackets after ≈: the same amount, converted by molar mass. Activity calls are given as the source filed them. No cut-off for these calls is given here.

Experiments:
P388 [1] = test: Cytotoxicity against mouse P388 cells; assay type: functional, cell-based
Bacillus subtilis [2] = test: Antimicrobial activity against Bacillus subtilis ATCC 19659 at 150 ug/disk; assay type: functional, organism-based
Bacillus subtilis [3] = test: Antimicrobial activity against Bacillus subtilis ATCC 19659 at 30 ug/disk; assay type: functional; conditions: read-out: IZ
P388 [4] = test: Cytotoxicity against mouse P388 cells at 0.06 ug/mL; assay type: functional

SMILES | IC50 (P388 [1]) [µg/mL] | Activity (Bacillus subtilis [2]) | zone of inhibition at 30 µg/disc (Bacillus subtilis [3]) [mm] | Activity (P388 [4]) [%]
O=C1CC(c2ccc(Oc3cc(-c4cc(=O)c5c(O)cc(O)cc5o4)ccc3O)cc2)Oc2cc(O)cc(O)c21 (centres undefined) | 3.1 (≈ 5.74 µM) | inactive | – | –
COc1cc(O)c2c(c1)OC(c1ccc(Oc3cc(C4CC(=O)c5c(O)cc(OC)cc5O4)ccc3O)cc1)CC2=O (centres undefined) | 8.7 (≈ 15.2 µM) | inactive | – | –
COc1cc(O)c2c(c1)OC(c1ccc(O)c(Oc3ccc(C4CC(=O)c5c(O)cc(O)cc5O4)cc3)c1)CC2=O (centres undefined) | – | inactive | – | –
O=C(N[C@H](CO)[C@H](O)c1ccc([N+](=O)[O-])cc1)C(Cl)Cl [CHLORAMPHENICOL] | – | – | 12 | –
O=C1CC(c2ccc(Oc3cc(C4CC(=O)c5c(O)cc(O)cc5O4)ccc3O)cc2)Oc2cc(O)cc(O)c21 (centres undefined) | 8.2 (≈ 15.1 µM) | inactive | – | –
CO[C@@]12[C@H](COC(N)=O)C3=C(C(=O)C(C)=C(N)C3=O)N1C[C@@H]1N[C@@H]12 [MITOMYCIN] | – | – | – | 43
